According to US9623028B2, “Methods of treating a cancer using substituted pyrrolopyrimidine compounds, compositions thereof” (Signal Pharmaceuticals, LLC, priority 2014, dated 2017):

Tests used:
CLK2 = CLK2 (Homo sapiens (Human), UniProt P49760); experiment: biochemical; details: read-out: CLK2 (% Inh.), % inhibition at 3 μM
CLK1 = CLK1 (Homo sapiens (Human), UniProt P49759); experiment: biochemical; details: read-out: CLK1 (% Inh.), % inhibition at 3 μM
Chain of CLK1 (P49759 whole entry): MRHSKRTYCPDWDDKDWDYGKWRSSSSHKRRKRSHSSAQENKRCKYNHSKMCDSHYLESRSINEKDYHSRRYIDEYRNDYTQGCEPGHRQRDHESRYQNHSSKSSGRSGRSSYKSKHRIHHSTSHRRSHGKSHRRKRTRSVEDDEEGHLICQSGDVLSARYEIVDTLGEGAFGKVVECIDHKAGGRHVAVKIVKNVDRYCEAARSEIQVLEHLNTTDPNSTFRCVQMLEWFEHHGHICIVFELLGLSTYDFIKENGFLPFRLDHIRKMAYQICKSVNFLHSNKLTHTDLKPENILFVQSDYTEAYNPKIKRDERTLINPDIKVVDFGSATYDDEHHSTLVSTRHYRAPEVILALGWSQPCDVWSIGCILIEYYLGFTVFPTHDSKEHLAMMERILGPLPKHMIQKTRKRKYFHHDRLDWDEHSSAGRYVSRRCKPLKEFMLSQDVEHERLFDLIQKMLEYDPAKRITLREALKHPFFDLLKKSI

Chain of CLK2 (P49760 whole entry): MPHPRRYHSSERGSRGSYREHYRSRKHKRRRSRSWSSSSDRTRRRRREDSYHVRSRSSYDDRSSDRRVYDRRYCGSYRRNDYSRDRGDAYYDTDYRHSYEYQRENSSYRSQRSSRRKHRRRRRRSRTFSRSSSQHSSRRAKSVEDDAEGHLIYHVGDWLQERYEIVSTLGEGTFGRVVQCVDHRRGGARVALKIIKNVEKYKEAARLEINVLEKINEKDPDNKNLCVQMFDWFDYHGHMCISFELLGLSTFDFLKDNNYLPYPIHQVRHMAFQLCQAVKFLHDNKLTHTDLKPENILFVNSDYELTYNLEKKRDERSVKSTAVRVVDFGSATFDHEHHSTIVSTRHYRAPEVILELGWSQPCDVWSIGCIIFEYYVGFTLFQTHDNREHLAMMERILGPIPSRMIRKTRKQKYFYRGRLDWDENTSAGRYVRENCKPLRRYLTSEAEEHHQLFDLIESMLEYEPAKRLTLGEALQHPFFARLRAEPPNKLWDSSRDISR

Row | Structure (SMILES) | inhibition at 3 µM (CLK2) | inhibition at 3 µM (CLK1)
1 | CNC(=O)c1ccc(Nc2nc(NC3CCCC3)c3c(-c4ccc(O)cc4)c[nH]c3n2)c(OC)c1 [Compound 16, 4-(4-(cyclopentylamino)-5-(4-hydroxyphenyl)-7H-pyrrolo[2,3-d]pyrimidin-2-ylamino)-3-methoxy-N-methylbenzamide] | 90% | 92%
2 | COc1nc(Nc2ccc(C(=O)N(C)C)cc2C)nc2[nH]cc(-c3ccncc3)c12 [Compound 89, 4-(4-methoxy-5-(pyridin-4-yl)-7H-pyrrolo[2,3-d]pyrimidin-2-ylamino)-N,N,3-trimethylbenzamide] | 100% | 101%
3 | Cc1nc2ccc(-c3c[nH]c4nc(Nc5cnn(C6CCOCC6)c5Cl)nc(OC5CCCC5)c34)cc2o1 [Compound 377, N-(5-chloro-1-(tetrahydro-2H-pyran-4-yl)-1H-pyrazol-4-yl)-4-(cyclopentyloxy)-5-(2-methylbenzo[d]oxazol-6-yl)-7H-pyrrolo[2,3-d]pyrimidin-2-amine] | 100% | 99%
4 | CNC(=O)c1ccc(Nc2nc(OC3CCOCC3)c3c(-c4cnn(C)c4)c[nH]c3n2)c(OC)c1 [Compound 184, 3-methoxy-N-methyl-4-(5-(1-methyl-1H-pyrazol-4-yl)-4-(tetrahydro-2H-pyran-4-yloxy)-7H-pyrrolo[2,3-d]pyrimidin-2-ylamino)benzamide] | 98% | 101%
5 | CNC(=O)c1ccc(-c2c[nH]c3nc(Nc4ccc(C(=O)NC)cc4Cl)nc(OC4CCOCC4)c23)cc1 [Compound 421, 3-chloro-N-methyl-4-(5-(4-(methylcarbamoyl)phenyl)-4-(tetrahydro-2H-pyran-4-yloxy)-7H-pyrrolo[2,3-d]pyrimidin-2-ylamino)benzamide] | 101% | 99%
6 | COc1cc(C(=O)N[C@H](C)CO)ccc1Nc1nc(OC2CCCC2)c2c(-c3ccc4nc(C)oc4c3)c[nH]c2n1 [Compound 214, (R)-4-(4-(cyclopentyloxy)-5-(2-methylbenzo[d]oxazol-6-yl)-7H-pyrrolo[2,3-d]pyrimidin-2-ylamino)-N-(1-hydroxypropan-2-yl)-3-methoxybenzamide] | 100% | 97%
7 | CNC(=O)c1ccc(Nc2nc(OC)c3c(-c4ccc(OC)nc4)c[nH]c3n2)c(OC)c1 [Compound 118, 3-methoxy-4-(4-methoxy-5-(6-methoxypyridin-3-yl)-7H-pyrrolo[2,3-d]pyrimidin-2-ylamino)-N-methylbenzamide] | 98% | 98%
8 | CNC(=O)c1ccc(Nc2nc(OC3CCCC3)c3c(-c4ccc(O)cc4)c[nH]c3n2)c(C(C)C)c1 [Compound 11, 4-(4-(cyclopentyloxy)-5-(4-hydroxyphenyl)-7H-pyrrolo[2,3-d]pyrimidin-2-ylamino)-3-isopropyl-N-methylbenzamide] | 94% | 95%
9 | CNC(=O)c1ccc(Nc2nc(OC3CCOCC3)c3c(-c4ccc(-c5nc(C)c(C)[nH]5)cc4)c[nH]c3n2)c(OC)c1 [Compound 197, 4-(5-(4-(4,5-dimethyl-1H-imidazol-2-yl)phenyl)-4-(tetrahydro-2H-pyran-4-yloxy)-7H-pyrrolo[2,3-d]pyrimidin-2-ylamino)-3-methoxy-N-methylbenzamide] | 103% | 100%
10 | COc1cc(C(=O)NCCO)ccc1Nc1nc(OC2CC2)c2c(-c3ccc4nc(C)oc4c3)c[nH]c2n1 [Compound 216, 4-(4-cyclopropoxy-5-(2-methylbenzo[d]oxazol-6-yl)-7H-pyrrolo[2,3-d]pyrimidin-2-ylamino)-N-(2-hydroxyethyl)-3-methoxybenzamide] | 99% | 99%
11 | CNC(=O)c1ccc(Nc2nc(OC3CCCC3)c3c(-c4ccc(OC)c(OC)c4)c[nH]c3n2)c(OC)c1 [Compound 64, 4-(4-(cyclopentyloxy)-5-(3,4-dimethoxyphenyl)-7H-pyrrolo[2,3-d]pyrimidin-2-ylamino)-3-methoxy-N-methylbenzamide] | 99% | 68%
12 | CNC(=O)c1ccc(Nc2nc(OC(C)C)c3c(-c4ccnc(OC)c4)c[nH]c3n2)c(OC)c1 [Compound 185, 4-(4-isopropoxy-5-(2-methoxypyridin-4-yl)-7H-pyrrolo[2,3-d]pyrimidin-2-ylamino)-3-methoxy-N-methylbenzamide] | 106% | 98%
13 | CC[C@@H](C)Oc1nc(Nc2ccc(C(=O)NC)cc2OC)nc2[nH]cc(-c3ccc4nc(C)oc4c3)c12 [Compound 203, (R)-4-(4-sec-butoxy-5-(2-methylbenzo[d]oxazol-6-yl)-7H-pyrrolo[2,3-d]pyrimidin-2-ylamino)-3-methoxy-N-methylbenzamide] | 99% | 98%
14 | CNC(=O)c1ccc(Nc2nc(OCCOC)c3c(-c4ccc5nc(C)oc5c4)c[nH]c3n2)c(OC)c1 [Compound 139, 3-methoxy-4-(4-(2-methoxyethoxy)-5-(2-methylbenzo[d]oxazol-6-yl)-7H-pyrrolo[2,3-d]pyrimidin-2-ylamino)-N-methylbenzamide] | 99% | 104%
15 | CNC(=O)c1ccc(Nc2nc(OC3CCCC3)c3c(-c4cccnc4)c[nH]c3n2)c(OC)c1 [Compound 58, 4-(4-(cyclopentyloxy)-5-(pyridin-3-yl)-7H-pyrrolo[2,3-d]pyrimidin-2-ylamino)-3-methoxy-N-methylbenzamide] | 103% | 96%
16 | CCOc1ccc(-c2c[nH]c3nc(Nc4ccc(C(=O)NC)cc4C)nc(O[C@H]4CCOC4)c23)cn1 [Compound 162, (S)-4-(5-(6-ethoxypyridin-3-yl)-4-(tetrahydrofuran-3-yloxy)-7H-pyrrolo[2,3-d]pyrimidin-2-ylamino)-N,3-dimethylbenzamide] | 106% | 100%
17 | CNC(=O)c1ccc(Nc2nc(OC3CCC(C)(O)CC3)c3c(-c4ccc5nc(C)oc5c4)c[nH]c3n2)c(OC)c1 (stereo not shown) [Compound 205, 4-(4-((1r,4r)-4-hydroxy-4-methylcyclohexyloxy)-5-(2-methylbenzo[d]oxazol-6-yl)-7H-pyrrolo[2,3-d]pyrimidin-2-ylamino)-3-methoxy-N-methylbenzamide] | 103% | 99%
18 | CNC(=O)c1ccc(Nc2nc(OC3CCOCC3)c3c(-c4ccc5nc(C)n(C)c5c4)c[nH]c3n2)c(OC)c1 [Compound 148, 4-(5-(1,2-dimethyl-1H-benzo[d]imidazol-6-yl)-4-(tetrahydro-2H-pyran-4-yloxy)-7H-pyrrolo[2,3-d]pyrimidin-2-ylamino)-3-methoxy-N-methylbenzamide] | 106% | 99%
19 | CNC(=O)c1ccc(Nc2nc(OC3CCC3)c3c(-c4ccc5nc(C)oc5c4)c[nH]c3n2)c(OC)c1 [Compound 198, 4-(4-cyclobutoxy-5-(2-methylbenzo[d]oxazol-6-yl)-7H-pyrrolo[2,3-d]pyrimidin-2-ylamino)-3-methoxy-N-methylbenzamide] | 100% | 93%
20 | Cc1nc2ccc(-c3c[nH]c4nc(Nc5ccc(C(=O)N(C)C)cc5C)nc(O[C@H]5CCOC5)c34)cc2o1 [Compound 98, (S)-N,N,3-trimethyl-4-(5-(2-methylbenzo[d]oxazol-6-yl)-4-(tetrahydrofuran-3-yloxy)-7H-pyrrolo[2,3-d]pyrimidin-2-ylamino)benzamide] | 104% | 103%
